Values of other authors in patent US20220273015A1, “FORMULATIONS AND USES THEREOF” (priority 2021, published 2022).
Entries after “also recorded” stand apart in the source; their conditions may differ.

Key:
[1] = for Properties: properties in words from a review of the primary literature (PMIDs in the cell), wrapped cell lines; for Stability: best preserved in an alcoholic tincture
[2] = test system: atypical/precancerous stem cells; conditions: used separately or together in one study
[3] = <1 ug daily, postoperative control of analgesia

For O=C(O)CCCCC1CCSS1 (stereo not drawn) [Alpha-Lipoic Acid], which “blood flow to damaged nerves, nerve conduction velocity, and other measures of nerve function” value ([1]; PMID 25381809) is on record?
The value was “microcirculation (PMID 160261130), improves”.

And the diabetic polyneuropathy ([1]; PMID 160261130)?
The diabetic polyneuropathy was “improving”.

And the microcirculation ([1]; PMID 160261130)?
The microcirculation was “oxidative stress, aging, cancer, improves”.

What about the “oxidative stress, aging, cancer” value ([1]; PMID 160261130) of the same compound?
The value was “reducing”.

And the “antioxidant protection of lipids” value ([1]; such as those found in the myelin sheath of neurons)?
The value was “Antioxidant which specifically protects lipids”.

With O=c1cc(-c2ccc(O)cc2)oc2cc(O)cc(O)c12 [Apigenin] as the compound, how does the “Anti-cancer / cytotoxic / antitumor properties” value ([1]; qualitative, PMID-cited) read?
Its value is “exerts an antitumor effect in preclinical models”.

For C=C(C)[C@H]1CC=C(C)CC1 [D-limonene], which “Antimicrobial, antiparasitic, insecticidal / insect repellent properties” value ([1]; qualitative, PMID-cited) is on record?
The value was “a result. D-limonene has antimicrobial”.

And the “Effects in animal models” value ([1]; qualitative, rodent/animal models, PMID-cited)?
Its value is “more capable. D-limonene has a mild diuretic”.

Which “antioxidant, anti-inflammatory, anti-microbial, anti-cancer activities” value ([1]; PMID 30657034) does the source give for O=C(O)c1cc(O)c(O)c(O)c1 [Gallic Acid] here?
Its value is “Powerful antioxidant, anti-inflammatory, anti-”.

What about the “preventing and treating acne” value ([1]; PMID 32390309, PMID 30617549) of the same compound?
The value was 23501608). Useful in preventing and treating.

What about the “inhibitory properties against cancer” value ([1]; in vitro and in vivo, PMID 23501608) of the same compound?
Its value is “Plant polyphenol with strong inhibitory”.

And the “NFKB, Akt, COX, ribonucleotide reductase and GSH pathways” value ([1]; mechanism of anti-cancer effect, PMID 23501608)?
The value was “(PMID 23501608) by inhibition of NFKB, Akt,”.

And the ATM kinase signaling ([1]; to prevent carcinogenesis, PMID 23501608)?
The ATM kinase signaling was “pathways; and also activates ATM kinase”.

Which “Wound healing / skin repair and skin health” value ([1]; qualitative, PMID-cited) does the source give for CCCCC/C=C\C/C=C\CCCCCCCC(=O)O [Linoleic acid] here?
Its value is “shown to lighten UV-induced”.

Which bone mineral density ([1]; by facilitating signaling cascades which improve translocation of calcium from the serum into the bony matrix, PMID 32244313) does the source give for CC(C)=CCC/C(C)=C/CC/C(C)=C/CC/C(C)=C/CC/C(C)=C/CC/C(C)=C/CC/C(C)=C/CC1=C(C)C(=O)c2ccccc2C1=O [MK7] here?
The bone mineral density was “other vitamin K homologs. MK7 increases”.

For CC(=O)N[C@@H](CS)C(=O)O [N-Acetyl Cysteine (NAC)], which Properties [1] is on record?
Its Properties is “completely blocks Reactive Oxygen Species”.

Which results are given for CCCCCCCC/C=C\CCCCCCCC(=O)O [Oleic acid (OA)]?
Safety / toxicity ([1]; qualitative): lead to heart failure (PMID 28391879) though; Skin penetration / delivery of ingredients across skin and membranes ([1]; qualitative, PMID-cited): Oleic acid (OA) enhances lipophilic penetration

What does the source list for CCCCCCCC/C=C\CCCCCCCC(=O)O [Oleic acid]?
lipophilic penetration of skin cells ([1]; "may enhance", PMID 21871866, PMID 2367329): enhance lipophilic penetration of skin cells; effect on the cell membrane allowing for drug permeability ([1]; PMID 2235880): 21871866) and creates a temporary disruption; targeted drug delivery across the skin ([1]; PMID 2514720): facilitate targeted drug delivery across the skin

For CCCCCCCCCCCCCCCC(=O)O [Palmitic Acid], which “Wound healing / skin repair and skin health” value ([1]; qualitative, PMID-cited) is on record?
Its value is “Palmitic Acid is a saturated fat essential to skin”.

For O=c1c(O)c(-c2ccc(O)c(O)c2)oc2cc(O)cc(O)c12 [Quercetin], which “Anti-cancer / cytotoxic / antitumor properties” value ([1]; qualitative, PMID-cited) is on record?
Its value is “antitumor effects PMID 31880372) the ability”.

For CCCCCCCCCCCCCCCCCC(=O)O [Stearic acid], which “Metabolic and cardiovascular effects (lipids, blood pressure, glucose, clotting)” value ([1]; qualitative, PMID-cited) is on record?
The value was 10945745) and can increase the “good”.

What about the “Wound healing / skin repair and skin health” value ([1]; qualitative, PMID-cited) of the same compound?
Its value is “a saturated fatty acid beneficial to skin; also recorded: important in wound healing of burns (PMID”.

For O=C1CC[C@@]2(O)[C@H]3Cc4ccc(O)c5c4[C@@]2(CCN3CC2CC2)[C@H]1O5 [ULDN], which “need for total amount of opioids following surgery” value [1, 3] is on record?
The value was “(reduces the need for total amount of opioids”.

What about the “side-effects of opioid-related treatment” value [1, 3] of the same compound?
Its value is “following surgery and ameliorating side-effects”.

Which “tolerability of opioid-weaning methadone taper” value ([1]; <1 ug X <0.5 mg daily) does the source give for O=C1CC[C@@]2(O)[C@H]3Cc4ccc(O)c5c4[C@@]2(CCN3CC2CC2)[C@H]1O5 [VLDN] here?
Its value is “VLDN: boosting tolerability of opioid-weaning”.

With CC(C)=CCC[C@](C)(O)C1CC=C(C)CC1 (stereo partly drawn) [bisabolol] as the compound, how does the Stability [1] read?
The Stability was “are very unstable and are best preserved in an”.

Which chronic plaque psoriasis ([1]; topical application, PMID 10753146) does the source give for C=C1/C(=C\C=C2/CCC[C@]3(C)[C@@H]([C@H](C)/C=C/[C@@H](O)C4CC4)CC[C@@H]23)C[C@@H](O)C[C@@H]1O [calcipotriene] here?
The chronic plaque psoriasis was “topical application of calcipotriene improves”.

With CCc1ccc(C)c2ccc(C)c-2c1 [chamazulene] as the compound, how does the Stability [1] read?
Its Stability is “are very unstable and are best preserved in an”.

For COc1cc(/C=C/C(=O)CC(=O)/C=C/c2ccc(O)c(OC)c2)ccc1O [curcumin], which “number of atypical/precancerous stem cells” value [2] is on record?
The value was “reduced”.

For CCCCC/C=C\C/C=C\CCCCCCCC(=O)O [linoleic acid], which Safety / toxicity ([1]; qualitative) is on record?
Its Safety / toxicity is “in high quantities is associated with higher rates”.

And the “Wound healing / skin repair and skin health” value ([1]; qualitative, PMID-cited)?
The value was “polyunsaturated fat that improves skin barrier”.

Which diuretic effect ([1]; observed only at a dose of 30 mg/kg in normal mice, PMID 20606379) does the source give for COc1cc(CCC(C)=O)ccc1O [zingerone] here?
The diuretic effect was “Oil, zingerone exhibited a mild diuretic effect”.

For Vitamin E, which Properties [1] is on record?
The Properties was “skin barrier stabilizing properties (PMID”.
